Source: PubChem BioAssay (NCI)
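Five compound concentrations were applied to cells in 96-well plates for 48 hours; endpoints were derived by simple linear interpolation of the resulting dose-response curve. GI50: concentration for 50% inhibition of growth. TGI: total growth inhibition.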

Columns and labels:
Test in all cases: NCI tumour cell line growth inhibition, 48 h
[1] = tested on: 786-0 renal
[2] = tested on: A498 renal
[3] = tested on: A549 NSCLC
[4] = tested on: ACHN renal
[5] = tested on: BT-549 breast
[6] = tested on: CAKI-1 renal
[7] = tested on: CCRF-CEM leukemia
[8] = tested on: COLO 205 colon
[9] = tested on: DU-145 prostate
[10] = tested on: EKVX NSCLC
[11] = tested on: HCC-2998 colon
[12] = tested on: HCT-116 colon
[13] = tested on: HCT-15 colon
[14] = tested on: HL-60(TB) leukemia
[15] = tested on: HOP-62 NSCLC
[16] = tested on: HOP-92 NSCLC
[17] = tested on: HS 578T breast
[18] = tested on: HT29 colon
[19] = tested on: IGROV1 ovarian
[20] = tested on: K-562 leukemia
[21] = tested on: KM12 colon
[22] = tested on: LOX IMVI melanoma
[23] = tested on: M14 melanoma
[24] = tested on: MALME-3M melanoma
[25] = tested on: MCF7 breast
[26] = tested on: MDA-MB-231 breast
[27] = tested on: MDA-MB-435
[28] = tested on: MOLT-4 leukemia
[29] = tested on: NCI-H226 lung
[30] = tested on: NCI-H23 lung
[31] = tested on: NCI-H460 lung
[32] = tested on: NCI-H522 lung
[33] = tested on: NCI/ADR-RES ovarian
[34] = tested on: OVCAR-3 ovarian
[35] = tested on: OVCAR-4 ovarian
[36] = tested on: OVCAR-5 ovarian
[37] = tested on: OVCAR-8 ovarian
[38] = tested on: PC-3 prostate
[39] = tested on: RPMI-8226 leukemia
[40] = tested on: RXF 393 renal
[41] = tested on: SF-268 CNS
[42] = tested on: SF-295 CNS
[43] = tested on: SF-539 CNS
[44] = tested on: SK-MEL-2 melanoma
[45] = tested on: SK-MEL-28 melanoma
[46] = tested on: SK-MEL-5 melanoma
[47] = tested on: SK-OV-3 ovarian
[48] = tested on: SN12C renal
[49] = tested on: SNB-19 CNS
[50] = tested on: SNB-75 CNS
[51] = tested on: SR leukemia
[52] = tested on: SW-620 colon
[53] = tested on: T-47D breast
[54] = tested on: TK-10 renal
[55] = tested on: U251 CNS
[56] = tested on: UACC-257 melanoma
[57] = tested on: UACC-62 melanoma
[58] = tested on: UO-31 renal

With `O=C1c2c(c3c4cc(O)ccc4oc3c3[nH]c4ccccc4c23)C(=O)N1O` the GI50 [1] was 752 nM, the TGI [1] was 6620 nM and the GI50 [2] was 3160 nM. For the same compound, the TGI [2] was 9480 nM, the GI50 [3] was 3290 nM and the TGI [3] was 18300 nM. The GI50 [4] was 360 nM, the TGI [4] was 1760 nM and the GI50 [5] was 423 nM. For the same compound, the TGI [5] was 1490 nM, the GI50 [6] was 787 nM and the TGI [6] was 3740 nM. It also gave a GI50 [7] of 277 nM, a TGI [7] of 9860 nM and a GI50 [8] of 1800 nM. For the same compound, the TGI [8] was 9360 nM, the GI50 [9] was 626 nM and the TGI [9] was 11200 nM. It also gave a GI50 [10] of 2080 nM, a TGI [10] of 8040 nM and a GI50 [11] of 1350 nM. The TGI [11] was 3590 nM, the GI50 [12] was 1090 nM and the TGI [12] was 2810 nM. For the same compound, the GI50 [13] was 1450 nM, the TGI [13] was 7190 nM and the GI50 [14] was 460 nM. The TGI [14] was 7830 nM, the GI50 [15] was 721 nM and the TGI [15] was 4470 nM. The GI50 [16] was 1140 nM, the TGI [16] was 4600 nM and the GI50 [17] was 1460 nM. It also gave a TGI [17] of 5760 nM, a GI50 [18] of 1600 nM and a TGI [18] of 3800 nM. It also gave a GI50 [19] of 724 nM, a TGI [19] of 2930 nM and a GI50 [20] of 428 nM. The TGI [20] was 13900 nM, the GI50 [21] was 1910 nM and the TGI [21] was 5780 nM. The GI50 [22] was 258 nM, the TGI [22] was 1020 nM and the GI50 [23] was 371 nM. For the same compound, the TGI [23] was 3870 nM, the GI50 [24] was 851 nM and the TGI [24] was 5080 nM. The GI50 [25] was 323 nM, the TGI [25] was 5210 nM and the GI50 [26] was 1180 nM. For the same compound, the TGI [26] was 4710 nM, the GI50 [27] was 627 nM and the TGI [27] was 2750 nM. It also gave a GI50 [28] of 320 nM, a TGI [28] of 1340 nM and a GI50 [29] of 1320 nM. The TGI [29] was 5010 nM, the GI50 [30] was 411 nM and the TGI [30] was 2250 nM. For the same compound, the GI50 [31] was 414 nM, the TGI [31] was 2890 nM and the GI50 [32] was 220 nM. For the same compound, the TGI [32] was 1220 nM, the GI50 [33] was 1570 nM and the TGI [33] was 29700 nM. It also gave a GI50 [34] of 1570 nM, a TGI [34] of 5230 nM and a GI50 [35] of 2170 nM. The TGI [35] was 10700 nM, the GI50 [36] was 2770 nM and the TGI [36] was 9300 nM. It also gave a GI50 [37] of 820 nM, a TGI [37] of 10700 nM and a GI50 [38] of 812 nM. For the same compound, the TGI [38] was 5550 nM, the GI50 [39] was 1410 nM and the TGI [39] was 8010 nM. For the same compound, the GI50 [40] was 872 nM, the TGI [40] was 2260 nM and the GI50 [41] was 553 nM. It also gave a TGI [41] of 4270 nM, a GI50 [42] of 488 nM and a TGI [42] of 5580 nM. It also gave a GI50 [43] of 315 nM, a TGI [43] of 1260 nM and a GI50 [44] of 1380 nM. The TGI [44] was 3080 nM, the GI50 [45] was 1150 nM and the TGI [45] was 5460 nM. It also gave a GI50 [46] of 275 nM, a TGI [46] of 815 nM and a GI50 [47] of 941 nM. For the same compound, the TGI [47] was 3300 nM, the GI50 [48] was 468 nM and the TGI [48] was 5790 nM. It also gave a GI50 [49] of 542 nM, a TGI [49] of 5530 nM and a GI50 [50] of 1020 nM. The TGI [50] was 2240 nM, the GI50 [51] was 274 nM and the TGI [51] was 1930 nM. It also gave a GI50 [52] of 549 nM, a TGI [52] of 7100 nM and a GI50 [53] of 461 nM. The TGI [53] was 4530 nM, the GI50 [54] was 5180 nM and the TGI [54] was 15400 nM. The GI50 [55] was 452 nM, the TGI [55] was 12700 nM and the GI50 [56] was 1990 nM. For the same compound, the TGI [56] was 6320 nM, the GI50 [57] was 703 nM and the TGI [57] was 2400 nM. It also gave a GI50 [58] of 342 nM and a TGI [58] of 1430 nM.

In the case of `C=C(C)C(=O)O[C@H]1C[C@@]2(C)OC(=CC2=O)/C(CO)=C\[C@H]2OC(=O)C(=C)[C@H]12`, the GI50 [1] was 65.2 nM, the TGI [1] was 144 nM and the GI50 [2] was 565 nM. The TGI [2] was 1290 nM, the GI50 [3] was 840 nM and the TGI [3] was > 3330 nM. It also gave a GI50 [4] of 61.2 nM, a TGI [4] of 228 nM and a GI50 [5] of 92.8 nM. The TGI [5] was 292 nM, the GI50 [6] was 87.9 nM and the TGI [6] was 301 nM. For the same compound, the GI50 [7] was 27.4 nM, the TGI [7] was 259 nM and the GI50 [8] was 32.7 nM. The TGI [8] was 95.4 nM, the GI50 [9] was 120 nM and the TGI [9] was 673 nM. It also gave a GI50 [10] of 137 nM, a TGI [10] of 1070 nM and a GI50 [11] of 216 nM. The TGI [11] was 535 nM, the GI50 [12] was 60.4 nM and the TGI [12] was 163 nM. For the same compound, the GI50 [13] was 70.3 nM, the TGI [13] was 223 nM and the GI50 [14] was 67.7 nM. For the same compound, the TGI [14] was 189 nM, the GI50 [15] was 654 nM and the TGI [15] was 2350 nM. The GI50 [16] was 72.6 nM, the TGI [16] was 173 nM and the GI50 [17] was 294 nM. The TGI [17] was > 3330 nM, the GI50 [18] was 112 nM and the TGI [18] was 356 nM. It also gave a GI50 [19] of 145 nM, a TGI [19] of 562 nM and a GI50 [20] of 94.6 nM. It also gave a TGI [20] of 621 nM, a GI50 [21] of 509 nM and a TGI [21] of 1120 nM. The GI50 [22] was 53.3 nM, the TGI [22] was 106 nM and the GI50 [23] was 72.3 nM. The TGI [23] was 178 nM, the GI50 [24] was 70.8 nM and the TGI [24] was 203 nM. It also gave a GI50 [25] of 86.1 nM, a TGI [25] of 418 nM and a GI50 [26] of 79.4 nM. For the same compound, the TGI [26] was 206 nM, the GI50 [27] was 66.4 nM and the TGI [27] was 146 nM. The GI50 [28] was 80.2 nM, the TGI [28] was 265 nM and the GI50 [29] was 68.5 nM. The TGI [29] was 172 nM, the GI50 [30] was 153 nM and the TGI [30] was 421 nM. It also gave a GI50 [31] of 424 nM, a TGI [31] of 2070 nM and a GI50 [32] of 7.73 nM. For the same compound, the TGI [32] was 24.5 nM, the GI50 [33] was 224 nM and the TGI [33] was > 3330 nM. The GI50 [34] was 55.2 nM, the TGI [34] was 149 nM and the GI50 [35] was 151 nM. The TGI [35] was 652 nM, the GI50 [36] was 84.8 nM and the TGI [36] was 226 nM. For the same compound, the GI50 [37] was 115 nM, the TGI [37] was > 1540 nM and the GI50 [38] was 190 nM. The TGI [38] was 985 nM, the GI50 [39] was 80.9 nM and the TGI [39] was 229 nM. The GI50 [40] was 57.6 nM, the TGI [40] was 120 nM and the GI50 [41] was 168 nM. It also gave a TGI [41] of 836 nM, a GI50 [42] of 575 nM and a TGI [42] of 1500 nM. The GI50 [43] was 88 nM, the TGI [43] was 287 nM and the GI50 [44] was 120 nM. The TGI [44] was 490 nM, the GI50 [45] was 66.1 nM and the TGI [45] was 148 nM. For the same compound, the GI50 [46] was 318 nM, the TGI [46] was 1230 nM and the GI50 [47] was 1190 nM. For the same compound, the TGI [47] was > 3330 nM, the GI50 [48] was 114 nM and the TGI [48] was > 1230 nM. For the same compound, the GI50 [49] was 937 nM, the TGI [49] was > 3330 nM and the GI50 [50] was 132 nM. For the same compound, the TGI [50] was 1700 nM, the GI50 [51] was 43.7 nM and the TGI [51] was 249 nM. The GI50 [52] was 52.1 nM, the TGI [52] was 147 nM and the GI50 [53] was 72.9 nM. The TGI [53] was 588 nM, the GI50 [54] was 57.3 nM and the TGI [54] was 127 nM. It also gave a GI50 [55] of 159 nM, a TGI [55] of 579 nM and a GI50 [56] of 74 nM. It also gave a TGI [56] of 213 nM, a GI50 [57] of 56.9 nM and a TGI [57] of 123 nM. It also gave a GI50 [58] of 68.5 nM and a TGI [58] of 177 nM.
